Reference: PubChem BioAssay AID256 (DTP/NCI, 2004)
Toxic doses and inconclusive results are not listed. The calls were made as follows: active = survival T/C of 150% or more; inactive = T/C below 125% in these data.

Test system: CD2F1 mice, L1210 leukemia ip, survival T/C
Assay: NCI In Vivo Anticancer Drug Screen. Data for tumor model L1210 Leukemia (intraperitoneal) in CD2F1 (CDF1) mice
Settings: endpoint: mean survival time, higher = longer survival
Method in brief: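 Vehicle-treated tumor-bearing mice served as controls (C) for compound-treated mice (T). Reported figure is T divided by C.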

Measured: T/C

Cc1cc2c(c3oc(C4(C)OC4C4OC4C)cc(=O)c13)C(=O)c1c(O)c(C3CC(C)(N(C)C)C(O)C(C)O3)cc(C3CC(N(C)C)C(O)C(C)O3)c1C2=O (stereo unspecified)
inactive: dose: 0.07 mg/kg/injection, schedule: Q01DX009 (oral), vehicle: saline 87 % of control | dose: 0.13 mg/kg/injection, schedule: Q01DX009 (oral), vehicle: saline 93 % of control | dose: 0.25 mg/kg/injection, schedule: Q01DX001 (oral), vehicle: saline 98 % of control | dose: 0.25 mg/kg/injection, schedule: Q01DX009 (oral), vehicle: saline 92 % of control | dose: 0.5 mg/kg/injection, schedule: Q01DX001 (oral), vehicle: saline 97 % of control | dose: 0.5 mg/kg/injection, schedule: Q01DX009 (oral), vehicle: saline 100 % of control | dose: 1.0 mg/kg/injection, schedule: Q01DX001 (oral), vehicle: saline 96 % of control | dose: 2.0 mg/kg/injection, schedule: Q01DX001 (oral), vehicle: saline 97 % of control | dose: 1.0 micrograms/kg/injection, schedule: Q03HX024 (ip), vehicle: saline 106 % of control | dose: 1.3 micrograms/kg/injection, schedule: Q01DX009 (ip), vehicle: water 101 % of control | dose: 2.0 micrograms/kg/injection, schedule: Q03HX024 (ip), vehicle: saline 111 % of control | dose: 2.5 micrograms/kg/injection, schedule: Q01DX009 (ip), vehicle: water 112 % of control | dose: 4.0 micrograms/kg/injection, schedule: Q01DX009 (ip), vehicle: saline 102 % of control | dose: 4.0 micrograms/kg/injection, schedule: Q03HX024 (ip), vehicle: saline 111 % of control | dose: 5.0 micrograms/kg/injection, schedule: Q01DX009 (ip), vehicle: water 108 % of control | dose: 8.0 micrograms/kg/injection, schedule: Q01DX009 (ip), vehicle: saline 109 % of control | dose: 8.0 micrograms/kg/injection, schedule: Q03HX008 (ip), vehicle: saline 103 % of control | dose: 8.0 micrograms/kg/injection, schedule: Q03HX024 (ip), vehicle: saline 112 % of control | dose: 10.0 micrograms/kg/injection, schedule: Q01DX009 (ip), vehicle: water 112 % of control | dose: 15.0 micrograms/kg/injection, schedule: Q01DX009 (ip), vehicle: saline 109 % of control | dose: 15.0 micrograms/kg/injection, schedule: Q03HX008 (ip), vehicle: saline 112 % of control | dose: 15.0 micrograms/kg/injection, schedule: Q08DX002 (ip), vehicle: saline 98 % of control | dose: 20.0 micrograms/kg/injection, schedule: Q01DX009 (ip), vehicle: water 106 % of control | dose: 30.0 micrograms/kg/injection, schedule: Q01DX009 (ip), vehicle: saline 114 % of control | dose: 30.0 micrograms/kg/injection, schedule: Q03HX008 (ip), vehicle: saline 113 % of control | dose: 30.0 micrograms/kg/injection, schedule: Q08DX002 (ip), vehicle: saline 98 % of control | dose: 40.0 micrograms/kg/injection, schedule: Q01DX009 (ip), vehicle: water 91 % of control | dose: 60.0 micrograms/kg/injection, schedule: Q03HX008 (ip), vehicle: saline 118 % of control | dose: 60.0 micrograms/kg/injection, schedule: Q08DX002 (ip), vehicle: saline 106 % of control | dose: 120.0 micrograms/kg/injection, schedule: Q08DX002 (ip), vehicle: saline 121 % of control

Cn1c2c(c3ccccc31)CCCC2=O
inactive: dose: 100.0 mg/kg/injection, schedule: Q01DX001 (ip), vehicle: saline 106 % of control | dose: 200.0 mg/kg/injection, schedule: Q01DX001 (ip), vehicle: saline 97 % of control | dose: 400.0 mg/kg/injection, schedule: Q01DX001 (ip), vehicle: saline 93 % of control

CNc1c(C)cc(C)c(NC)c1C
inactive: dose: 25.0 mg/kg/injection, schedule: Q04DX002 (ip), vehicle: saline with Tween-80 104 % of control | dose: 50.0 mg/kg/injection, schedule: Q04DX002 (ip), vehicle: saline with Tween-80 96 % of control | dose: 100.0 mg/kg/injection, schedule: Q04DX002 (ip), vehicle: saline with Tween-80 116 % of control
